Where only a bound is given, the exact number is not on record here.

This assay concerns the target T1, human CCR6 (Homo sapiens, UniProt P51684).
T1 construct: expressed in transfected cells; host or cells: Ba/F3 cells (murine pro-B line), hCCR6-transfected, CMV promoter, sodium butyrate induction
T1 sequence (P51684 1-374): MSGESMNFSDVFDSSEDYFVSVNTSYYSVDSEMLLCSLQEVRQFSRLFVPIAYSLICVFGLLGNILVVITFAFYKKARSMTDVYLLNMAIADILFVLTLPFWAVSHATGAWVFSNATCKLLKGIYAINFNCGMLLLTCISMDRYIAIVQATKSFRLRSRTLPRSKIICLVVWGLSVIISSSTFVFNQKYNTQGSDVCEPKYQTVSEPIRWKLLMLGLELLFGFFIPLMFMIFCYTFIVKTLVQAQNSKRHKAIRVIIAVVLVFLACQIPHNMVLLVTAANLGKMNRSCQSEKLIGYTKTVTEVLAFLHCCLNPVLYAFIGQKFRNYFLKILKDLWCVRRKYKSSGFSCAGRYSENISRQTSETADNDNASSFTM
Description: Migration (chemotaxis) assay, hCCR6-transfected Ba/F3 cells toward CCL20. As to conditions: hCCR6-transfected Ba/F3 cells in human serum; recombinant human CCL20 10 nM; 37° C. 45 minutes; read-out: Potency (IC50 value in the migration assay). It counts as cell-based. The source says: A chemotaxis assay can be used to determine the efficacy of potential receptor antagonists at blocking the migration mediated through chemokine receptors, such as CCR6. This assay is routinely performed using the ChemoTX® microchamber system with a 5-μm pore-sized polycarbonate membrane. Chemokine receptor-expressing cells are required for such an assay. In this case, Ba/F3 cells (Palacios et al., Nature, 309:126, 1984) transfected with the gene for human CCR6 under control of the CMV promotor were used. To begin such an assay, hCCR6-transfected Ba/F3 cells are first grown for 24 hr in medium supplemented with sodium butyrate, which increases CCR6 transcription via the CMV promotor. The prepared Ba/F3 cells, are collected by centrifugation at 400×g at room temperature, then suspended at 4 million/ml in human serum. The compound being tested is serially diluted from a maximum final concentration of 10 μM (or an equivalent volume of its solvent (DMSO)) and is then added to the cell/serum mixture. Separately, recombinant human CCL20 (MIP-3α/LARC) at its EC50 concentration (10 nM) is placed in the lower wells of the ChemoTX® plate. The 5-μm (pore size) polycarbonate membrane is placed onto the plate, and 20 μL of the cell/compound mixture is transferred onto each well of the membrane. The plates are incubated at 37° C. for 45 minutes, after which the polycarbonate membranes are removed and 5 μl of the DNA-intercalating dye CyQUANT (Invitrogen, Carlsbad, CA) is added to the lower wells. The amount of fluorescence, corresponding to the number of migrated cells, is measured using a Spectrafluor Plus plate reader (TECAN, San Jose, CA).
In the case of `Nc1n[nH]c2ncc(-c3ccc(S(=O)(=O)N4CCC(Nc5ccc(C(F)(F)F)cn5)CC4)cc3)cc12` [Example 1.068], the IC50 was < 5 nM.

As to `NC(=O)N1CCCN(c2ccc(S(=O)(=O)N3CCC(Nc4ccc(C(F)(F)F)cn4)CC3)cc2)CC1` [Example 1.203], the IC50 lay in the range of 5 to 100 nM.

On to `NC(=O)NC1CCN(c2ccc(S(=O)(=O)N3CCC(Nc4ccc(C(F)(F)F)cn4)CC3)cc2)CC1` [Example 1.205], for which the IC50 lay in the range of 5 to 100 nM.

As for `N#Cc1cn(CCNC(N)=O)c2ncc(-c3ccc(S(=O)(=O)N4CCC(Nc5ccc(C(F)(F)F)cn5)CC4)cc3)cc12` [Example 1.003], the IC50 was < 5 nM.

As for `CN1CCC2(CCN(c3ccc(S(=O)(=O)N4CCC(Nc5ccc(C(F)(F)F)cn5)CC4)cc3)CC2)C1=O` [Example 1.157], the IC50 was 5 to 100 nM.

In the case of `CC(=O)N1CCCC(c2ccc(S(=O)(=O)N3CCC(Nc4ccc(C(F)(F)F)cn4)CC3)cc2)C1` (stereo not drawn) [Example 1.183], the IC50 was in the range of 5 to 100 nM.

Take `O=C1CNC(=O)C2(CCN(c3ccc(S(=O)(=O)N4CCC(Nc5ccc(C(F)(F)F)cn5)CC4)cc3)CC2)N1` [Example 1.139]: the IC50 was 100 to 10000 nM.

As for `CC(=O)NCCn1cc(C#N)c2cc(-c3ccc(S(=O)(=O)N4CCC(Nc5ccc(C(F)(F)F)cn5)CC4)cc3)cnc21` [Example 1.011], the IC50 is < 5 nM.

Consider `N#Cc1c[nH]c2cc(-c3ccc(S(=O)(=O)N4CCC(Nc5ccc(C(F)(F)F)cn5)CC4)cc3)ccc12` [Example 1.101], for which the IC50 is 5 to 100 nM.

`Cn1nc(C#N)c2cc(-c3ccc(S(=O)(=O)N4CCC(Nc5ccc(C(F)(F)F)cn5)CC4)cc3)ccc21` [Example 1.091]: the IC50 is < 5 nM.

Take `O=C1NC(=O)N2CCN(c3ccc(S(=O)(=O)N4CCC(Nc5ccc(C(F)(F)F)cn5)CC4)cc3)CC12` (stereo not drawn) [Example 1.177]: the IC50 lay in the range of 5 to 100 nM.

As for `N#Cc1c[nH]c2ncc(-c3ccc(S(=O)(=O)N4CCC(Nc5ccc(C(F)(F)F)cc5)CC4)cc3)cc12` [Example 1.056], the IC50 was < 5 nM.

In the case of `COc1cc(-c2ccc(S(=O)(=O)N3CCC(Nc4ccc(C(F)(F)F)cn4)CC3)cc2)cc2c1NC(=O)C2` [Example 1.045], the IC50 was in the range of 5 to 100 nM.

As for `Nc1nc2ccc(-c3ccc(S(=O)(=O)N4CCC(Nc5ccc(C(F)(F)F)cn5)CC4)cc3)cc2o1` [Example 1.086], the IC50 was < 5 nM.

For the compound `O=C1CCc2cc(-c3ccc(S(=O)(=O)N4CCC(Nc5ccc(C(F)(F)F)cn5)CC4)cc3)ccc2N1` [Example 1.078], the IC50 fell in the range of 5 to 100 nM.

As to `NC(=O)N1CCc2nc(-c3ccc(S(=O)(=O)N4CCC(Nc5ccc(C(F)(F)F)cn5)CC4)cc3)sc2C1` [Example 1.102], the IC50 was 100 to 10000 nM.

Regarding `NC(=O)CC1CCN(c2ccc(S(=O)(=O)N3CCC(Nc4ccc(C(F)(F)F)cn4)CC3)cc2)CC1` [Example 1.155], the IC50 was < 5 nM.

Consider `CC(C)(C)OC(=O)NCC1CN(c2ccc(S(=O)(=O)N3CCC(Nc4ccc(C(F)(F)F)cn4)CC3)cc2)C1` [Example 1.143], for which the IC50 was 5 to 100 nM.

With `O=S(=O)(c1ccc(N2CCC(O)CC2)nc1)N1CCC(Nc2ccc(C(F)(F)F)cn2)CC1` [Example 1.209], the IC50 lay in the range of 100 to 10000 nM.

`O=S(=O)(c1ccc(-c2ccc3[nH]nnc3c2)cc1)N1CCC(Nc2ccc(C(F)(F)F)cn2)CC1` [Example 1.109]: the IC50 lay within 100 to 10000 nM.

As to `O=C1NCc2cc(-c3ccc(S(=O)(=O)N4CCC(Nc5ccc(C(F)(F)F)cn5)CC4)cc3)ccc21` [Example 1.117], the IC50 was < 5 nM.

Regarding `NC(=O)c1cc(-c2ccc(S(=O)(=O)N3CCC(Nc4ccc(C(F)(F)F)cn4)CC3)cc2)cc2c1NC(=O)C2` [Example 1.005], the IC50 is < 5 nM.

With `CS(=O)(=O)NCCC1CCN(c2ccc(S(=O)(=O)N3CCC(Nc4ccc(C(F)(F)F)cn4)CC3)cc2)CC1` [Example 1.127], the IC50 lay within 5 to 100 nM.

Consider `N#Cc1n[nH]c2ccc(-c3ccc(S(=O)(=O)[C@H]4CC[C@H](Nc5ccc(C(F)(F)F)cn5)CC4)cc3)cc12` [Example 1.072], for which the IC50 is < 5 nM.

Consider `NC(=O)C1CN(c2ccc(S(=O)(=O)N3CCC(Nc4ccc(C(F)(F)F)cn4)CC3)cc2)C1` [Example 1.196], for which the IC50 fell in the range of 100 to 10000 nM.

For `NC(=O)CC1CCCN(c2ccc(S(=O)(=O)N3CCC(Nc4ccc(C(F)(F)F)cn4)CC3)cc2)C1` (stereo not drawn) [Example 1.138], the IC50 was in the range of 100 to 10000 nM.

As for `O=S(=O)(c1ccc(N2CCC(c3cnc[nH]3)CC2)cc1)N1CCC(Nc2ccc(C(F)(F)F)cn2)CC1` [Example 1.130], the IC50 was 100 to 10000 nM.

In the case of `O=c1[nH]c2ccc(-c3ccc(S(=O)(=O)N4CCC(Nc5ccc(C(F)(F)F)cn5)CC4)cc3)cc2[nH]1` [Example 1.115], the IC50 was 5 to 100 nM.

Regarding `Nc1n[nH]c2ccc(-c3ccc(S(=O)(=O)N4CCC(Nc5ccc(C(F)(F)F)cn5)CC4)cc3)cc12` [Example 1.112], the IC50 is < 5 nM.

Consider `O=C1NCCC12CCN(c1ccc(S(=O)(=O)N3CCC(Nc4ccc(C(F)(F)F)cn4)CC3)cc1)CC2` [Example 1.172], for which the IC50 is < 5 nM.

`O=S1(=O)CCN(c2ccc(S(=O)(=O)N3CCC(Nc4ccc(C(F)(F)F)cn4)CC3)cc2)CC1` [Example 1.231]: the IC50 is 100 to 10000 nM.

Take `CC1(C)Oc2cc(-c3ccc(S(=O)(=O)N4CCC(Nc5ccc(C(F)(F)F)cn5)CC4)cc3)ccc2NC1=O` [Example 1.019]: the IC50 was 5 to 100 nM.

Take `O=S(=O)(c1ccc(N2CCn3ccnc3C2)cc1)N1CCC(Nc2ccc(C(F)(F)F)cn2)CC1` [Example 1.229]: the IC50 lay within 100 to 10000 nM.

On to `NC(=O)CC1CCN(c2ccc(S(=O)(=O)N3CCC(Nc4ccc(C(F)(F)F)cn4)CC3)cc2)CC1` [Example 1.167], for which the IC50 lay within 5 to 100 nM.

On to `O=S(=O)(c1ccc(-c2ccc3c(c2)NCCO3)cc1)N1CCC(Nc2ccc(C(F)(F)F)cn2)CC1` [Example 1.035], for which the IC50 lay in the range of 5 to 100 nM.

In the case of `O=C1Nc2ncc(-c3ccc(S(=O)(=O)N4CCC(Nc5ccc(C(F)(F)F)cn5)CC4)cc3)cc2C12CCOCC2` [Example 1.064], the IC50 was < 5 nM.

`NC(=O)NCC1CCN(c2ccc(S(=O)(=O)N3CCC(Nc4ccc(C(F)(F)F)cn4)CC3)cc2)CC1` [Example 1.146]: the IC50 is < 5 nM.

As for `NC(=O)N1CCC2(CCN(c3ccc(S(=O)(=O)N4CCC(Nc5ccc(C(F)(F)F)cn5)CC4)cc3)C2)C1` (stereo not drawn) [Example 1.175], the IC50 is 5 to 100 nM.

Turning to `O=S(=O)(c1ccc(-c2ccc3c(c2)OCCO3)cc1)N1CCC(Nc2ccc(C(F)(F)F)cn2)CC1` [Example 1.032], the IC50 fell in the range of 100 to 10000 nM.

For `CC(=O)N1Cc2ccc(-c3ccc(S(=O)(=O)N4CCC(Nc5ccc(C(F)(F)F)cn5)CC4)cc3)cc2C1` [Example 1.053], the IC50 was < 5 nM.

Turning to `O=c1[nH]c2cc(-c3ccc(S(=O)(=O)N4CCC(Nc5ccc(C(F)(F)F)cn5)CC4)cc3)cnc2[nH]1` [Example 1.067], the IC50 was < 5 nM.

Take `CN1CCN(c2ccc(S(=O)(=O)N3CCC(Nc4ccc(C(F)(F)F)cn4)CC3)cc2)CC1` [Example 1.232]: the IC50 is 100 to 10000 nM.

As to `CC(=O)N[C@H]1CCCN(c2ccc(S(=O)(=O)N3CCC(Nc4ccc(C(F)(F)F)cn4)CC3)cc2)C1` [Example 1.193], the IC50 was 100 to 10000 nM.

In the case of `O=C1CC2(CCN(c3ccc(S(=O)(=O)N4CCC(Nc5ccc(C(F)(F)F)cn5)CC4)cc3)CC2)CC(=O)N1` [Example 1.152], the IC50 was < 5 nM.

Consider `CC(=O)N1CCC(c2ccc(S(=O)(=O)N3CCC(Nc4ccc(C(F)(F)F)cn4)CC3)cc2)CC1` [Example 1.184], for which the IC50 is 5 to 100 nM.

Source of the values: US12012403B2, “Aryl sulfonyl compounds as CCR6 inhibitors” (CHEMOCENTRYX, INC., priority 2021, dated 2024).
